The values that follow come from the OligoGym collection.

“And” between values parts separate entries of the source, which are not always exact repeats. Equal entries are not always repeated. After the bases stand the sugars from the 5' end (letter, count) and the backbone: PS all phosphorothioate, else s phosphorothioate and o phosphodiester by linkage. Methylation of C is not given here. e = 2'-O-(2-methoxyethyl) (MOE); d = 2'-deoxy (DNA)

This series addresses DGAT2. To be noted: ASO.

“CCACAGGGCCCTTTCCAGAA (sugars e5 d10 e5, PS)”: the target mRNA inhibition is 58% and 53% (HepG2, 2.5 µM); 87% and 85% (HepG2, 10 µM).
“CAGCAGATGATGTCCTGCCT (sugars e5 d10 e5, PS)”: the target mRNA inhibition (HepG2, 2.5 µM) was 66% and the target mRNA inhibition (HepG2, 10 µM) worked out at 88%.
Regarding “AGATGCCACTTCATCAAGGC (sugars e5 d10 e5, PS)”, the target mRNA inhibition (HepG2, 0.12 µM) stood at 24%.
On the same count and under the same terms, the result for “ACCCATCGGCCCCAGGAGCC (sugars e5 d10 e5, PS)” reads 59%.
As for “ATTTCTTATCTTCAATCCTC (sugars e5 d10 e5, PS)”, the target mRNA inhibition by setting is: (HepG2, 2.5 µM) 57%; (HepG2, 10 µM) 95%.
As for “CATTCTTTGAAAGCAAATAG (sugars e5 d10 e5, PS)”, for the setting “HepG2, 0.12 µM”, the target mRNA inhibition worked out at 15%.
Regarding “CATTGCCACTCCCATTCTTT (sugars e3 d14 e3, PS)”, the target mRNA inhibition (HepG2, 0.12 µM) was found to be 46%.
Same read-out and setting: under “GGGATGATAAACACTAAGGT (sugars e5 d10 e5, PS)” stands 37%.
Turning to “CAGTGCTTTCTAAGTACCCT (sugars e5 d10 e5, PS)”, the target mRNA inhibition reads like this: (HepG2, 2.5 µM) 68% and 69%; (HepG2, 10 µM) 91% and 86%.
Sequence “GGTAAGGCCAAGGAAGTGAG (sugars e5 d10 e5, PS)” came in with a target mRNA inhibition (HepG2, 2.5 µM) of 66% and a target mRNA inhibition (HepG2, 10 µM) of 80%.
Take “TAGCCAGGTAAGGCCGTATG (sugars e5 d10 e5, PS)”: the target mRNA inhibition (HepG2, 0.12 µM) was 56% and 60%.
The same measure, in the same setting: under “TTCTGGAACTTCTTCTGGAC (sugars e5 d10 e5, PS)” stands 37%.
As to “AGGACCCCGGAGTAGGCGGC (sugars e5 d10 e5, PS)”, the target mRNA inhibition was 52% and 76% (HepG2, 0.12 µM); 60% (HepG2, 2.5 µM); 92% (HepG2, 10 µM).
With “AGCCTGGACAAGTCCTGCCC (sugars e2 d13 e5, PS)”, the target mRNA inhibition (HepG2, 0.12 µM) is 75%.
“GTCTCATTCATCTGGGCCCT (sugars e5 d10 e5, PS)” registered a target mRNA inhibition (HepG2, 2.5 µM) of 69% and a target mRNA inhibition (HepG2, 10 µM) of 86%.
As for “GTGCTCTGTGGGCTCCT (sugars e3 d10 e4, PS)”, the target mRNA inhibition is, setting by setting: (HepG2, 2.5 µM) 55% and 70%; (HepG2, 10 µM) 85% and 89%.
Sequence “TAGCCTGGCTTTGATAACCC (sugars e5 d10 e5, PS)” displayed a target mRNA inhibition (HepG2, 0.12 µM) of 42%.
Take “GGATGTGTCATTTCCCCTGG (sugars e5 d10 e5, PS)”: the target mRNA inhibition was 66% (HepG2, 2.5 µM) and 96% (HepG2, 10 µM).
In the case of “CAGTGGGCCCCAGGTGGCTC (sugars e5 d10 e5, PS)”, the target mRNA inhibition (HepG2, 0.12 µM) amounted to 46%.
Same read-out and setting: the result for “CTTGGGTGTGTTCCAGTCAA (sugars e5 d10 e5, PS)” reads 5%.
“CCAGTTTCGGACCCACTGTG (sugars e5 d10 e5, PS)”: the target mRNA inhibition by setting is: (HepG2, 0.12 µM) 83%; (HepG2, 2.5 µM) 28%; (HepG2, 10 µM) 31%; (HepG2, 20 µM) 65%.
Consider “TCATTTCATAGATGAGGAGA (sugars e5 d10 e5, PS)”, for which the target mRNA inhibition (HepG2, 0.12 µM) stood at 34%.
Under “HepG2, 0.12 µM”, “TGTGTCTTCACCAGCTGGAT (sugars e5 d10 e5, PS)” returned a target mRNA inhibition of 55%.
For the setting “HepG2, 0.12 µM”, “ACAATTCCTGGATAACAAGG (sugars e5 d10 e5, PS)” registered a target mRNA inhibition of 41%.
For “ATCCGGACTGAATGTCACCT (sugars e5 d10 e5, PS)”, the target mRNA inhibition was 80% and 72% (HepG2, 2.5 µM); 84% and 91% (HepG2, 10 µM).
With “AGGCATATACAAAAGTCTGA (sugars e5 d10 e5, PS)”, the target mRNA inhibition (HepG2, 0.12 µM) turned out to be 38%.
On the same count and under the same terms, under “CCTGGACAAGTCCTGCCCAT (sugars e2 d13 e5, PS)” stands 59%; under “ATGAGGGTCTTCATGGCTGA (sugars e5 d10 e5, PS)”, 7%.
For “GAAATCCAATGCACCTTGTA (sugars e5 d10 e5, PS)”, the target mRNA inhibition runs as follows: (HepG2, 2.5 µM) 63%; (HepG2, 10 µM) 94%.
Regarding “CGGACTGAATGTCACCT (sugars e3 d10 e4, PS)”, the target mRNA inhibition (HepG2, 2.5 µM) was 60% and 68%; the target mRNA inhibition (HepG2, 10 µM) is 87% and 83%.
As to “CACTGGAGCACTGAGATGAC (sugars e5 d10 e5, PS)”, the target mRNA inhibition (HepG2, 0.12 µM) was 27% and 48%.
For “TGACCTTGGGATAGTCCCTC (sugars e5 d10 e5, PS)”, the target mRNA inhibition reads like this: (HepG2, 2.5 µM) 93%; (HepG2, 10 µM) 89%.
For the sequence “GTCCTGGAGGGCGGAGAGGA (sugars e5 d10 e5, PS)”, where the note is “HepG2, 0.12 µM”, the target mRNA inhibition is 32%.
For “CTTTGAAATCCAATGCACCT (sugars e5 d10 e5, PS)”, the target mRNA inhibition was 65% (HepG2, 2.5 µM) and 92% (HepG2, 10 µM).
In turn, “AGAAAAACCAGTTACTCCAC (sugars e5 d10 e5, PS)” displayed a target mRNA inhibition (HepG2, 0.12 µM) of 4%.
Consider “AATGGAGTGACAGGGCAGGA (sugars e5 d10 e5, PS)”, for which the target mRNA inhibition is, setting by setting: (HepG2, 2.5 µM) 54%; (HepG2, 10 µM) 81%.
As to “CAAAAACATGACAGCCAGGG (sugars e5 d10 e5, PS)”, the target mRNA inhibition reads like this: (HepG2, 2.5 µM) 85% and 75%; (HepG2, 10 µM) 96% and 90%.
Turning to “AAGGCCGTATGCCTGGGAAC (sugars e5 d10 e5, PS)”, the target mRNA inhibition (HepG2, 0.12 µM) was 25%.
On to “GCCCAGCACCAAGGAATGGT (sugars e5 d10 e5, PS)”, for which the target mRNA inhibition reads like this: (HepG2, 2.5 µM) 0%; (HepG2, 10 µM) 59%.
Consider “GCTAGGACACCTGGAGCTGC (sugars e5 d10 e5, PS)”, for which the target mRNA inhibition (HepG2, 10 µM) is 95% and 80% and 96%.
